Data set [1] relates to Meth-A tumor (WEHI164 fibrosarcoma). Description: Irradiation and tetra-arsenic oxide treatment on Balb/c mouse having Meth-A tumor (tumor volume). The format is in vivo. To be noted: 8 mg/kg once into abdominal cavity 1 hour after single local irradiation; 6 mice; FIG. 1; *p<0.05. How it is done:
(§1) Balb/c, and Balb/c, nu/nu female mice (weight: 20 to 25 g, age: 6 to 8 weeks) were obtained from Orient bio (Taejun, Korea), and WEHI164 tumor cell line (derived from Meth-A-induced fibrosarcoma) and FaDu tumor cell line (derived from human nasopharyngeal squamous cell carcinoma) were bought from KCCB (Seoul, Korea). WEHI164 cells (5×10^5) or FaDu cells (1×10^6) in MEM 50 μl were hypodermically injected into a rear leg of a Balb/c or Balb/c nu/nu mouse, and then the growth of a tumor was observed.
(§2) Tetra-arsenic oxide obtained from Genew Science (Seoul, Korea) was placed in distilled water, and continuously stilled and dissolved. The resultant liquid was stored as a stock liquid at 4° C. The stock liquid was diluted with a phosphoric acid buffer solution in such a manner as to have a final concentration of 0.5 mg/ml.
In order to minimize acute arsenic toxicity, dextrose was added with a final concentration of 5% (F. X. Reichl, H. Kreppel, L. Szinicz, B. Fichtl, and W. Forth, Reduction of arsenic trioxide toxicity in mice by repeated treatment with glucose. Arch Toxicol Suppl 14 (1991) 225-7).
In irradiation, a cobalt-60 unit (Theratron 780; AECL, Kanata, Ontarino, Canada) was used. […]
A change in the tumor size was measured by calipers twice to three times per week. A tumor volume was calculated by a×b×h/2 (a=minimum length, b=maximum length, h=height). […]

The conditions of data set [2]: M. J. Park et al., Int. J. Oncol. 22, 2003; cited from earlier work.
The test system of data set [3] is human nasopharyngeal squamous cell carcinoma (FaDu). Description: Single irradiation and tetra-arsenic oxide treatment on Balb/c nu/nu mouse having human nasopharyngeal squamous cell carcinoma (tumor volume). The format is in vivo. As to conditions: FIGS. 2 and 3. How it is done: as §1, §2
(§3) In order to minimize acute arsenic toxicity, dextrose was added with a final concentration of 5% (F. X. Reichl, H. Kreppel, L. Szinicz, B. Fichtl, and W. Forth, Reduction of arsenic trioxide toxicity in mice by repeated treatment with glucose. Arch Toxicol Suppl 14 (1991) 225-7). […]
(§4) A tumor volume was measured twice to three times per week. The tumor size was measured by calipers, and the tumor volume was calculated by a×b×h/2 (a=minimum length, b=maximum length, h=height). […]

Data set [4] has the same test system. Description: Fractional irradiation and tetra-arsenic oxide treatment on Balb/c nu/nu mouse having human nasopharyngeal squamous cell carcinoma (tumor volume). As to conditions: 8 mg/kg through abdominal cavity; fractional irradiation 12 Gy 4 times per week for 4 weeks; FIG. 3. The format is in vivo. How it is done: as §1, §2, §3, §4
For data set [5] the following is noted: oral dosage form; Z. X. Shen et al., Blood 89 (1997); cited from earlier work.

The text below walks through data of patent US20110250292A1, “COMPOSITION FOR IMPROVING RA[…] CANCER” (CHONJISAN CO., LTD., priority 2008, published 2011).

Turning to `O1[As]2O[As]3O[As]1O[As](O2)O3` [tetra-arsenic oxide, 2,4,6,8,9,10-Hexaoxa-1,3,5,7-tetraarsatricyclo [3.3.1.1^3,7]decane], the “growth of tumor (tumor volume), combination with irradiation compared to irradiation alone” value in data set [1] is “significantly reduced the growth of tumor”. Besides, the “toxicity on oral administration” value in data set [2] is given as “very low toxicity”. Moreover, the “tumor growth inhibition, separate treatment of tetra-arsenic oxide compared to control group” value in data set [3] (8 mg/kg once through abdominal cavity, no irradiation) is reported as “hardly has an effect on tumor growth inhibition”. In addition, the “tumor growth, combination with irradiation compared to irradiation alone” value in data set [3] (8 mg/kg through abdominal cavity plus local irradiation) was “significantly reducing tumor growth”. In data set [4], the “radiosensitizer effect on tumor volume with fractional irradiation” value is reported as “significant effect as a radiosensitizer”.
In the case of arsenic trioxide, the “gastrointestinal toxicity on oral administration” value in data set [5] is reported as “serious gastrointestinal toxicity”.
